{
  "source": "patent US20100016401A1",
  "about": "“3-AZA-BICYCLO[3.1.0]HEXANE DERIVATIVES” (Actelion Phamaceuticals Ltd., priority 2006, published 2010)",
  "key": {"[1]": {"target": "T1, human orexin-1 receptor (Homo sapiens, UniProt O43613)", "T1 construct": "expressed in transfected cells; host or cells: CHO (Chinese hamster ovary) cells, grown under G418 selection", "T1 sequence (O43613 1-425)": "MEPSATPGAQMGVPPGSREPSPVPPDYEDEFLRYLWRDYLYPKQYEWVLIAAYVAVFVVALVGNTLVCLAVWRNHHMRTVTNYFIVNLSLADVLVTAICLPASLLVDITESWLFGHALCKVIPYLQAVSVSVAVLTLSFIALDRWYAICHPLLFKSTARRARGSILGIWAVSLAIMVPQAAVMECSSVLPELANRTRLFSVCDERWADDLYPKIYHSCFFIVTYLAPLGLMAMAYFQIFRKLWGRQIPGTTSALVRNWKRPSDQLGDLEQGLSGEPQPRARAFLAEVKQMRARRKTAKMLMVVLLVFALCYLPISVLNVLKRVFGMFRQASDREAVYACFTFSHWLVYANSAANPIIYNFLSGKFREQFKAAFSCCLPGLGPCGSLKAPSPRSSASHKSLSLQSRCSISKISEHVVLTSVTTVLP", "assay": "Intracellular calcium measurements (FLIPR), orexin receptor antagonistic activity, OX1", "type": "cell-based", "conditions": "CHO cells expressing human orexin-1 receptor, 10 nM orexin-A as agonist", "description": "(§1) The orexin receptor antagonistic activity of the compounds of formula (I) is determined in accordance with the following experimental method.\n(§2) Intracellular Calcium Measurements:\n(§3) Chinese hamster ovary (CHO) cells expressing the human orexin-1 receptor and the human orexin-2 receptor, respectively, are grown in culture medium (Ham F-12 with L-Glutamine) containing 300 μg/ml G418, 100 U/ml penicillin, 100 μg/ml streptomycin and 10% inactivated fetal calf serum (FCS). The cells are seeded at 80,000 cells/well into 96-well black clear bottom sterile plates (Costar) which have been precoated with 1% gelatine in Hanks' Balanced Salt Solution (HBSS). All reagents are from Gibco BRL. The seeded plates are incubated overnight at 37° C. in 5% CO2.\n(§4) Human orexin-A as an agonist is prepared as 1 mM stock solution in MeOH: water (1:1), diluted in HBSS containing 0.1% bovine serum albumin (BSA) and 2 mM HEPES for use in the assay at a final concentration of 10 nM.\n(§5) Antagonists are prepared as 10 mM stock solution in DMSO, then diluted in 96-well plates, first in DMSO, then in HBSS containing 0.1% bovine serum albumin (BSA) and 2 mM HEPES.\n(§6) On the day of the assay, 100 μl of loading medium (HBSS containing 1% FCS, 2 mM HEPES, 5 mM probenecid (Sigma) and 3 μM of the fluorescent calcium indicator fluo-3 AM (1 mM stock solution in DMSO with 10% pluronic acid) (Molecular Probes) is added to each well.\n(§7) The 96-well plates are incubated for 60 min at 37° C. in 5% CO2. The loading solution is then aspirated and cells are washed 3 times with 200 μl HBSS containing 2.5 mM probenecid, 0.1% BSA, 2 mM HEPES. 100 μl of that same buffer is left in each well.\n(§8) Within the Fluorescent Imaging Plate Reader (FLIPR, Molecular Devices), antagonists are added to the plate in a volume of 50 μl, incubated for 20 min and finally 100 μl of agonist is added. Fluorescence is measured for each well at 1 second intervals, and the height of each fluorescence peak is compared to the height of the fluorescence peak induced by 10 nM orexin-A with buffer in place of antagonist."}, "[2]": {"target": "T2, human orexin-2 receptor (Homo sapiens, UniProt O43614)", "T2 construct": "expressed in transfected cells; host or cells: CHO (Chinese hamster ovary) cells, grown under G418 selection", "T2 sequence (O43614 1-444)": "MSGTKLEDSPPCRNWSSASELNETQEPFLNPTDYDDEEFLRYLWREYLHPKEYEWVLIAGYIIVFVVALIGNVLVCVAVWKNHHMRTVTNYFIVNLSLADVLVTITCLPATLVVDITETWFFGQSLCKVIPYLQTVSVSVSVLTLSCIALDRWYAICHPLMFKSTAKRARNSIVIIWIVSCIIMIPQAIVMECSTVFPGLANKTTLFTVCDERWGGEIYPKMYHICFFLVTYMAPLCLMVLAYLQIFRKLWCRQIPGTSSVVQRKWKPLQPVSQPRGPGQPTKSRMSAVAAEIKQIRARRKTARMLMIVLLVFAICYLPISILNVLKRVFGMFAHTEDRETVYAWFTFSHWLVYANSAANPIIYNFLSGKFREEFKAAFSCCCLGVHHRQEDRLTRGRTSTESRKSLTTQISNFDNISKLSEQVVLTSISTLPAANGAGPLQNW", "assay": "Intracellular calcium measurements (FLIPR), orexin receptor antagonistic activity, OX2", "type": "cell-based", "conditions": "CHO cells expressing human orexin-2 receptor, 10 nM orexin-A as agonist", "description": "as §1, §2, §3, §4, §5, §6, §7, §8"}},
  "data": [
    {"smiles": "Cc1cccc(-c2sc(C#CCO)nc2C(=O)N2C[C@H]3C[C@H]3[C@H]2CNC(=O)c2c(C)nc3sccn23)c1", "note": "(relative stereo) [Example 387, 6-Methyl-imidazo[2,1-b]thiazole-5-carboxylic acid {(1R*,2S*,5S*)-3-[2-(3-hydroxy-prop-1-ynyl)-5-m-tolyl-thiazole-4-carbonyl]-3-aza-bicyclo[3.1.0]hex-2-ylmethyl}-amide]", "values": [
      {"measurement": "IC50", "setting": "[1]", "value": 23, "unit": "nM"},
      {"measurement": "IC50", "setting": "[2]", "value": 85, "unit": "nM"}
    ]},
    {"smiles": "Cc1cccc(-c2sc(C)nc2C(=O)N2C[C@H]3C[C@H]3[C@H]2CNC(=O)c2cccc3c2CCCO3)c1", "note": "(relative stereo) [Example 182, Chroman-5-carboxylic acid [(1R*,2S*,5S*)-3-(2-methyl-5-m-tolyl-thiazole-4-carbonyl)-3-aza-bicyclo[3.1.0]hex-2-ylmethyl]-amide]", "values": [
      {"measurement": "IC50", "setting": "[1]", "value": 241, "unit": "nM"},
      {"measurement": "IC50", "setting": "[2]", "value": 196, "unit": "nM"}
    ]}
  ]
}
